These results are taken from patent publication US10689415B2, “Conjugates of RGD peptides and (bacterio)chlorophyll photosensitizers” (YEDA RESEARCH AND DEVELOPMENT COMPANY LTD., priority 2006, dated 2020).

Data set [1] has as its system tumor grafts of mouse CT26luc colon carcinoma. As to the kind of experiment: Biodistribution (Pd by ICP-MS) in mice with CT26luc colon carcinoma grafts. Format: in vivo, CD1 nude male mice. To be noted: 8 hours post injection. The procedure:
Anesthetized mice were i.v. injected (tail vein) with the different photosensitizer (pigment) conjugates (control group: untreated). The mice were sacrificed at indicated time points and samples of the indicated organs and tissues (blood, tumor, intestine, liver, spleen, kidneys, testies, heart, lung, brain, skin, muscle and fat) were placed in pre-weighted vials and immediately frozen and stored at −20° in the dark until analyzed. Three methods were used for sample preparation: (1) Each sample was thawed and homogenized in DDW (1:10 w/v). Aliquots of the homogenate (500 μl) were lyophilized in Eppendorf test tubes. […] Pd concentrations were determined by ICP-MS. According to method (3), the supernatants were diluted in methanol by a factor of two and the drug concentration was determined by fluorescence measurements (Varian-Cary Eclipse spectrofluorimeter, Palo Alto, Calif., USA) at 750 nm (peak values). Drug concentrations were interpolated from a fluorescence calibration curve, based on predetermined drug concentrations using absorption spectroscopy. […]
The conjugates of the invention are potential drug carriers. […] In order to quantify the conjugate levels in target tissues, Ion Coupled Plasma-Mass Spectroscopy (ICP-MS) was used for tracing the central M atom (e.g., Pd, Cu) in the target organ. […]

The test system of the next data set is HUVEC. The experiment in a line: Cell detachment (rounding) assay, HUVEC. Format: cell-based, human. To be noted: 100 μM RGD-4C; recovery after 24 h in fresh medium. The procedure: (§1) H5V cells were cultured as monolayers in 3-cm dish for 24-48 h, and further incubated for 1 h with 100 μM RGD-4C at 4° C. or 37° C. The cells were washed once and re-incubated for three hours with fresh culture medium at 37° C. In the same fashion, HUVEC were cultured as monolayers in 6-well plate pre-coated with gelatin for 48 h, and incubated for 1 h with 100 μM RGD-4C at 37° C. The cells were washed once and re-incubated for 24 h with fresh culture medium at 37° C. The morphological changes of the cells were documented using light microscopy.

Another data set addresses αvβ5 and αvβ3 integrins. To be noted: read-out: affinity constant; reports by others; cited from earlier work.
In data set [2] the target is isolated αvβ3 integrin receptor (Homo sapiens, UniProt P05106+P06756). The experiment in a line: Solid-phase receptor assay, Eu-RGD-4C binding competed by RGD-4C. To be noted: 100 μM of RGD-4C; highest attenuation. On the procedure:
The binding of Eu-RGD-4C to isolated αvβ3 integrin receptor was determined using time-resolved fluorometry. Each well of a microtiter plate (Nunc MaxiSorb) was coated with 50 μl of purified receptor (1 μg/ml in PBS) by shaking at 4° C. overnight. The receptor solution was then removed, and each well was blocked with 200 μl of milk (1% w/v milk powder in PBS, 1 hr, room temperature). The plate was then washed with 200 μl of PBS once, and incubated for 1 h at 37° C. with increasing concentrations of RGD-4C in the presence of constant amount of Eu-RGD-4C (10 million F.U./well). The ligand/competitor solution was removed and each well was washed three times with 200 μl PBS. Enhancement solution was added (200 μl/well) to release the chelated Eu. […] Under these experimental conditions, 100 μM of RGD-4C reduced by 50% Eu-RGD-4C binding to the isolated receptor. This value represents the highest attenuation of the Eu-RGD-4C binding, even at RGD-4C highest concentrations.

A short description of data set [3]: Solubilization for in vitro experiments (water solubility). Format: physicochemical. On the procedure: Compound 24 was dissolved in 100% DMSO before use and diluted in saline to a final DMSO concentration of 5% v/v.
For data set [4], the system named is H5V endothelial cells. The experiment in a line: Cell detachment (rounding) assay, H5V. Format: cell-based, mouse. On the procedure:
as §1
The biological effect of RGD-4C binding was characterized in H5V cells and Human Umbilical Vein Endothelial Cells (HUVEC) using the cell-rounding assay described in Materials and Methods. The morphological changes of the cells were documented using light microscopy. […] This effect was reversible as the cells recovered following 3 h re-incubation with fresh culture medium (8% rounded cells in dishes with previous presence of RGD-4C versus 6% in the absence of RGD-4C).

The test system of data set [5] is H5V endothelial cells. As to the kind of experiment: Phototoxicity assay (Neutral Red cell viability after illumination). To be noted: for LD50: Table 3: 10 μM BSA in medium (90 min, 37° C.). Format: cell-based, mouse.
Experimental: The light source for in vitro studies was home-built 100-W halogen lamp equipped with a high-pass filter (>650 nm, Safelight filter 1A Eastman Kodak Co., Rochester, N.Y., USA) and a 4-cm water filter. The lamp was used to illuminate (20 mW/cm^2/10 min (12 J/cm^2)) the culture plates from the bottom at room temperature in a dark room.
To determine the pigment photodynamic efficacy in vitro under standard conditions, cells were cultured in 96-well plates and preincubated for 15 or 90 min at 37° C. or 4° C., according to the indicated experiment protocol, with 0-25 μM conjugated or non-conjugated photosensitizer in different media conditions (culture medium DMEM/F12; 10% FCS in medium or 10 μM BSA in medium) in the absence or presence of excess free peptide (100 fold up to 1 mM). The cells were washed and illuminated (20 mW/cm^2 for 10 min). Plates were placed back in the culture incubator for 24 h. Cell survival was determined using Neutral Red cell viability assay. Cell survival was calculated as the percent of the dye accumulated in the untreated controls. […] Three kinds of controls were used: (i) light control: cells illuminated in the absence of pigments; (ii) dark control: cells treated with pigments but kept in the dark; and (iii) untreated cells that were kept in the dark.
Following photosensitization and a 24-h incubation period (37° C.), cell survival was determined by Neutral Red (Fluka Chemie, Buchs, Switzerland) accumulation. After subtraction of assay blanks, net optical density (570 nm) was computed as the average value of triplicates determinations. Cell survival was calculated as the percent of the dye accumulated in the untreated controls.
H5V cells were incubated for 90 min at 37° C. with 0-25 μM of conjugate 23 or compound 10 in different media conditions, illuminated and their survival was determined using Neutral Red viability assay as described in Materials and Methods.
Targeted phototoxicity is defined as one inhibited by the free ligand. Thus, further experiments attempted to block phototoxicity by administration of the free cycloRGDfK, which competes for the cellular binding of conjugate 23. H5V cells were incubated for 90 min at 37° C. with 0-25 μM of compound 10 or conjugate 23 in different media (10% FCS in medium or 10 μM BSA in medium) in the absence or presence of free excess cycloRGDfK (100-fold up to 1 mM). The cells were illuminated and cell survival was determined using Neutral Red viability assay, as described above.
In order to test the endocytosis theory and since the endocytic process is time- and temperature-dependent, H5V cells were incubated at 37° C. and 4° C. for 15 min with 0-20 μM of conjugate 23 in medium containing 10% FCS, in the presence or absence of excess cycloRGDfK (100-fold up to 1 mM). Cells were illuminated and their survival was determined as described above.
The phototoxicity of conjugate 24 was determined by monitoring the survival of cultured H5V endothelial cells following PDT. H5V cells were incubated for 2 hours at 37° C. with 0-25 μM conjugate 24 in culture medium DMEM/F12 with 10% FCS. The cells were illuminated and their survival was determined as described above.
Cells were incubated for 90 min at 37° C. in the presence of 0-20 μM conjugate 11 or compound 8 in 10 μM BSA in medium, illuminated and their survival was determined as described above.
The test system of a further data set is rat C6 glioma xenografts. As to the kind of experiment: Whole-body NIR fluorescence imaging, rat C6 glioma xenografts. To be noted: 200 nmol dose, 4 to 72 hours post injection. Format: in vivo, CD-1 nude male mice. The source says: The in Vivo Optical Imaging System (IVISR100/XFO-12, Xenogen Corp., Alameda, Calif., USA) was used to acquire fluorescent images of the RFP-expressing tumors, as well as photosensitizers associated with tissues and organs after their intravenous (i.v.) infusion to the tested animals. The field-of-view was 15 cm. Two images were taken; the first image is black and white, providing a photograph of the animal. The second image is a colored overlay of the emitted photon data, in the present case the NIR fluorescence of the compound (680-720 nm excitation filter and a 780-810 nm emission filter) or bioluminescence (560 nm) as described below. […]
Dynamic fluorescence images were acquired immediately following the injection of a conjugate of the invention and continued for approximately 2 hours. Fluorescence images were also obtained under isoflurane anesthesia for up to 72 hr after initial injection of the conjugate. […]
Dynamic fluorescence images were obtained from CD-1 nude male mice bearing rat C6 glioma xenografts. The fluorescence images were acquired using IVIS system as described in Materials and Methods. […]
Specific binding is defined as one inhibited by the unconjugated sensitizer. […] Fluorescence images of the blocked receptor xenografts with the same exposure time are illustrated in FIG. 19 on the same linear color scale to allow for a qualitative comparison. […]

The next data set deals with CT26luc colon cancer. The experiment in a line: In vivo PDT (VTP) of CT26luc colon cancer. The conditions noted are these: i.v. injected and illuminated after 8 hours. More on the design: species or system CD-1 nude male mice. The procedure: CD-1 nude male mice bearing the different tumor xenografts were anesthetized and 24 (5-24 mg/kg body weight) or 8 (9 mg/kg body weight) were i.v. injected via the tail vein. The tumors were trans-cutaneously illuminated after 3.5, 6, 8, 12 and 24 hours for 5-30 min at light doses of 30-360 J/cm^2. Intensity of illumination: 100-200 mW/cm^2. After treatment, the mice were returned to the cage. The mice were considered cured if tumor free for 90 days after treatment. Mice were euthanized when the tumor diameter reached 15 mm. […] (5) Mixture of 8 and cycloRGDfK: the mice were i.v. injected with mixture of 8 with cycloRGDfK and illuminated after indicated time point. (6) cycloRGDfK alone: the mice were i.v. injected with cycloRGDfK and illuminated after indicated time point. Images were taken at indicated time post PDT.
FIGS. 32A-32F show the therapeutic results of applying 15 mg/kg, 10 min illumination (60 J/cm^2), 8 hours post injection of conjugate 24 to mice bearing CT26luc tumors (bolded protocol in Table 5). 32A—conjugate 24 was i.v. injected 15 mg/kg, 10 min illumination (60 J/cm^2) 8 hours post injection; 32B—overlaid images taken after i.p. injection of luciferin to the mouse described in 32A, using the IVIS system. The first image is black and white, which gives the photograph of the animal. The second image is color overlay of the emitted photon data. […]

Where no end group is shown, it is not given here.

isolated αvβ3 integrin receptor, sequence (P06756 31-889 limits assumed): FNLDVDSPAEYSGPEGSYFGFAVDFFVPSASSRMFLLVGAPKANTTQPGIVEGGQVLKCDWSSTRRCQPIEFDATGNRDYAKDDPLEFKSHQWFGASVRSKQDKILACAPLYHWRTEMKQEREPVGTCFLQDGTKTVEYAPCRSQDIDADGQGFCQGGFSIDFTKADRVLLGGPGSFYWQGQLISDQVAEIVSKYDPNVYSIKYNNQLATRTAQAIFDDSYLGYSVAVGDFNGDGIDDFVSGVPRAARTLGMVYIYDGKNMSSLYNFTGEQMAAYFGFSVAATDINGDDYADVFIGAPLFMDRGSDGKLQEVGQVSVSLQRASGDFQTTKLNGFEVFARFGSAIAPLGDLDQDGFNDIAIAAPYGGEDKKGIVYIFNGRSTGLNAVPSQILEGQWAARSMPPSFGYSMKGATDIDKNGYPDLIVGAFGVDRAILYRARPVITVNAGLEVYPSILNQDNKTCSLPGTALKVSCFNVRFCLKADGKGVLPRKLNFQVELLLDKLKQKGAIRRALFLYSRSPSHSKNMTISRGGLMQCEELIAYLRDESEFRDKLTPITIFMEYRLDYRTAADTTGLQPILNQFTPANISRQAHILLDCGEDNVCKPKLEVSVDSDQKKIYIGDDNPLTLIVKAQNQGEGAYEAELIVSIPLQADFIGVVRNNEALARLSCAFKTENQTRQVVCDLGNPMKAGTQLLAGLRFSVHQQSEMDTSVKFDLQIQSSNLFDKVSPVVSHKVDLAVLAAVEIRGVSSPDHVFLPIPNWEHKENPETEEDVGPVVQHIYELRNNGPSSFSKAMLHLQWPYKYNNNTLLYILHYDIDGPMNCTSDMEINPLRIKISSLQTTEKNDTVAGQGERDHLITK
isolated αvβ3 integrin receptor, sequence (P06756 891-1048 limits assumed): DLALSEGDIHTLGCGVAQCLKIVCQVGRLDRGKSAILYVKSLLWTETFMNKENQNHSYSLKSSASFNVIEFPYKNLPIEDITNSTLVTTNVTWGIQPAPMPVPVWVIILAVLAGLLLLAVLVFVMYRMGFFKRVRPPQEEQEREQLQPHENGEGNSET
isolated αvβ3 integrin receptor, sequence (P05106 27-788): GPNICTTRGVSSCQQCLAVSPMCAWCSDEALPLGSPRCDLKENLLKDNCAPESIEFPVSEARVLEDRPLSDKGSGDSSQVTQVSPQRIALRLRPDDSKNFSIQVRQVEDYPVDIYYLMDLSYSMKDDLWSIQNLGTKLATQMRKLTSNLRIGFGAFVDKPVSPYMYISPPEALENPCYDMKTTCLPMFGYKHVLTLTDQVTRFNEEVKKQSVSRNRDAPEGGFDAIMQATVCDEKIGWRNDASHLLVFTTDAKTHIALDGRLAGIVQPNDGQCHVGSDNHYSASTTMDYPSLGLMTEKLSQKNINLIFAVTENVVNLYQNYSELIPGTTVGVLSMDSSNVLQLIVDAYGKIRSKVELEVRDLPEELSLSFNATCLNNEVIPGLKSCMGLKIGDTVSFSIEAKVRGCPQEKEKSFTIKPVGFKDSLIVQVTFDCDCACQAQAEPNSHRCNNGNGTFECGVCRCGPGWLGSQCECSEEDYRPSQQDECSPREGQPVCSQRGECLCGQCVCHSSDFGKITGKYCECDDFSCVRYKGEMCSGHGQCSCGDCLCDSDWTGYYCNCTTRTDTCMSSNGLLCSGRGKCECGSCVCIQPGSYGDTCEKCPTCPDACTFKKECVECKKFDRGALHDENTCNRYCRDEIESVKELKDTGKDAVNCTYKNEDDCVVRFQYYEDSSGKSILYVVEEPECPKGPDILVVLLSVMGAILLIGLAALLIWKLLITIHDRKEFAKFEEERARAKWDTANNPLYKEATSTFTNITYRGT

For “Palladium 3^1-oxo-15-methoxycarbonylmethyl-Rhodobacteriochlorin 13^1-(2-sulfoethyl)amide-17^3-(cycloRADfK)amide potassium salt [Conjugate 42]”, the “concentrations in the tumor tissue and blood” value in data set [1] is listed as “quite the same”.

Take “the cyclic nonapeptide CDCRGDCFC-NH2 (disulfide (positions not given here)) [RGD-4C]”: the HUVEC detachment entry with HUVEC is reported as “induced HUVEC detachment from the dish in a reversible manner”. Moreover, on αvβ5 and αvβ3 integrins, the Kd was approximately 100 nM. The “reduction of Eu-RGD-4C binding to the isolated receptor” value in data set [2] amounted to 50%. In addition, the water solubility entry in data set [3] is “Water insoluble”. Moreover, the “rounded cells (cell detachment from the dish)” value in the data set with H5V endothelial cells [4] (100 μM RGD-4C, n=200) turned out to be 99%. The “rounded cells after 3 h re-incubation with fresh culture medium” value with H5V endothelial cells [4] (previous presence of RGD-4C, 37° C.) came to 8%.

In the case of “Palladium 3^1-oxo-15-methoxycarbonylmethyl-Rhodobacteriochlorin 13^1-(2-sulfoethyl)amide potassium salt [Compound 8, reference compound]”, the phototoxic effects entry in the data set with H5V endothelial cells [5] (90 min, 37° C., 10 μM BSA in medium, 0-20 μM) is “light- and drug concentration-dependent”. Further, the LD50 in the data set with H5V endothelial cells [5] is 1.8 to 2 µM; with H5V endothelial cells [5] (with free peptide excess (RGD-4C 1 mM)), 2 µM. For the same substance, the whole-body fluorescence distribution result in the data set on rat C6 glioma xenografts was “no specific signal could be seen”. For the same substance, the water solubility result in [3] is recorded as “Water-soluble”. The “PDT effect of controls” value in the data set on CT26luc colon cancer is reported as “no PDT effect”.
